Consider 23 compounds from patent US20210145722A1, “ACTIVE SUBSTANCE COMBINATIONS OF N-(4-AMINO-2-METHYLQUINOLIN-6-YL)-2-((4-ETHYLPHENOXY)METHYL)BENZAMIDE AND ONE OR MORE COSMETICALLY OR DERMATOLOGICALLY ACCEPTABLE FRAGRANCES” (BEIERSDORF AG, priority 2017, published 2021).

Where two headings read alike, the source gives them in different places.

The subject of one series is subcutaneous adipocytes. Briefly: Lipid assay (AdipoRed staining of differentiated adipocytes). The format is cell-based. The conditions noted are these: combination with 10 ng/ml N-(4-amino-2-methylquinolin-6-yl)-2-((4-ethylphenoxy)methyl)benzamide; one week treatment. The protocol:
The lipid assay is performed on subcutaneous adipocytes. Cell culture dishes are inoculated with preadipocytes, which undergo differentiation into adipocytes. This is followed by treatment with the active substance for one week, during which the cells synthesize lipids and store them in vesicles. The total amount of lipid as a function of active substance effects is determined at the end of the culture period. This is done by staining the cell monolayer with the lipophilic fluorescent dye AdipoRed, followed by quantification by fluorescence spectroscopy.

Series [1] can be described thus: LDH (lactate dehydrogenase) cytotoxicity assay, fibroblasts.
Method: The third assay performed is the LDH (lactate dehydrogenase) cytotoxicity assay. In this assay, the metabolic enzyme LDH is detected in the medium supernatant of the cell monolayer by adding a substrate for the enzyme to the cell culture supernatant. Reaction of the latter produces a color change, which is determined photometrically. The magnitude of the color change correlates here with the amount of LDH in the cell culture supernatant.
For all assays, the active substances were present as 1000× stocks dissolved to 10 mM in DMSO and were diluted 1:1000 in the appropriate cell culture medium for use.
Another series concerns dermal fibroblasts. Briefly: BrdU viability assay (cell division rate). The format is cell-based. The conditions noted are these: combination with 10 ng/ml N-(4-amino-2-methylquinolin-6-yl)-2-((4-ethylphenoxy)methyl)benzamide; 24 h treatment. How it is done: For the viability assay, dermal fibroblasts were treated with active substances/active substance combinations in the cell culture medium for 24 h and during this time were provided with BrdU (5-bromodeoxyuridine). The cells take up this synthetic nucleic acid, which is detectable by fluorescence detection, and incorporate it into newly synthesized genetic material during cell division. The fluorescence of the cell monolayer is then measured after 24 h, the intensity of which is ultimately a measure of the cell division rate during treatment with the active substance. This allows conclusions to be drawn about the effect of the individual active substances on cell viability.

Where [2] appears, read: combination with 10 ng/ml N-(4-amino-2-methylquinolin-6-yl)-2-((4-ethylphenoxy)methyl)benzamide, table does not say whether fibroblasts or adipocytes.

Regarding `C=CC(C)(O)CCC=C(C)CC` (mixture of isomers) [Ethyl linalool], the “Assay in which the combination showed better activity than the corresponding active substance alone: Lipid” value (“Assay … Lipid” below) in the series with subcutaneous adipocytes is “Lipid”.
Same read-out and setting: as for `OCc1ccccc1` [Benzyl alcohol DD, Benzyl alcohol], the entry is “Lipid”; as for `O=C(C=Cc1ccccc1)OCc1ccccc1` [Benzyl cinnamate], “Lipid”.
`O=C(OCc1ccccc1)c1ccccc1O` [Benzyl salicylate]: in series [1], the “Assay in which the combination showed better activity than the corresponding active substance alone: LDH” value (“Assay … LDH” for short) was “LDH”.
Turning to `CC(C)=CCCC(C)=CC=O` [Citral 95, Citral], in the series with dermal fibroblasts, the “Assay in which the combination showed better activity than the corresponding active substance alone: BrdU” value (“Assay … BrdU” below) is on record as “BrdU”.
For `CC(C)=CCCC(C)CCO` (centres unmarked) [Citronellol 950, Citronellol], the “Assay … Lipid” value in the series with subcutaneous adipocytes is listed as “Lipid”. Further, the “Assay … LDH” value in series [1] (setting [2]) is listed as “LDH”.
On to `C=CC(C)CCCC(C)(C)O` (centres unmarked) [Dihydromyrcenol], for which the “Assay … Lipid” value in the series with subcutaneous adipocytes is “Lipid”.
The same measure, in the same setting: in the case of `CCOc1cc(C=O)ccc1O` [Ethyl vanillin] it was “Lipid”.
`C=CCc1ccc(O)c(OC)c1` [Eugenol]: the “Assay … BrdU” value in the series with dermal fibroblasts was “BrdU”.
`CC(C)=CCCC(C)=CCCC(C)=CCO` [Farnesol]: the “Assay … LDH” value in series [1] (setting [2]) is “LDH”.
As for `CCCCCC1C(=O)CCC1CC(=O)OC` (centres unmarked) [Hedion], in the series with dermal fibroblasts, the “Assay … BrdU” value is on record as “BrdU”. Further, the “Assay … Lipid” value with subcutaneous adipocytes is on record as “Lipid”. Moreover, the “Assay … LDH” value in series [1] (setting [2]) is listed as “LDH”.
The matching figures for `CC/C=C\CCO` [Hexenol cis-3]: “BrdU”, “Lipid” and “LDH”.
Take `CCCCCCOC(=O)c1ccccc1O` [Hexyl salicylate]: the “Assay … Lipid” value in the series on subcutaneous adipocytes was “Lipid”. Besides, the “Assay … LDH” value in series [1] (setting [2]) is listed as “LDH”.
With `CC(CC=O)CCCC(C)(C)O` (centres unmarked) [Hydroxycitronellal], the “Assay … LDH” value in series [1] (setting [2]) is given as “LDH”.
With `CC(=O)C1(C)CC2=C(CCCC2(C)C)CC1C` (centres unmarked) [Iso E Super], the “Assay … Lipid” value in the series on subcutaneous adipocytes is on record as “Lipid”. Also, in series [1] (setting [2]), the “Assay … LDH” value is “LDH”.
With `CC(C=O)Cc1ccc(C(C)(C)C)cc1` (centres unmarked) [Lilial], the “Assay … LDH” value in series [1] (setting [2]) is given as “LDH”.
Turning to `C=C(C)[C@H]1CC=C(C)CC1` [Limonene D pure, Limonene D], the “Assay … Lipid” value with subcutaneous adipocytes is “Lipid”.
Take `C=CC(C)(O)CCC=C(C)C` (centres unmarked) [Linalool aroma, Linalool]: the “Assay … Lipid” value in the series with subcutaneous adipocytes is listed as “Lipid”. The “Assay … LDH” value in series [1] (setting [2]) was “LDH”.
On to `C=CC(C)(CCC=C(C)C)OC(C)=O` (centres unmarked) [Linalyl acetate], for which the “Assay … LDH” value in series [1] (setting [2]) is on record as “LDH”.
On to `O=C1CCCCCCCCCCCCCCO1` [Macrolide supra], for which, in the series with subcutaneous adipocytes, the “Assay … Lipid” value was “Lipid”.
For the compound `CCCCCC#CC(=O)OC` [Methyl heptine carbonate], the “Assay … Lipid” value with subcutaneous adipocytes is “Lipid”. For the same compound, the “Assay … LDH” value in series [1] (setting [2]) is on record as “LDH”.
As for `OCCc1ccccc1` [Phenylethyl alcohol], in the series with dermal fibroblasts, the “Assay … BrdU” value is listed as “BrdU”.
Consider `Cc1ccc(C(C)C)c(O)c1` [Thymol cryst., Thymol], for which the “Assay … LDH” value in series [1] (setting [2]) is “LDH”.
